This test relates to MV-4-11 cells. Put plainly: Gene expression microarray analysis (Affymetrix PrimeView) and GSEA. On the set-up: RFU PODN (11730768_x_at) / Fold change /veh PODN (11730768_x_at) / RFU LINC00158 (11744669_a_at) / Fold change /veh LINC00158 (11744669_a_at) / RFU DUSP10 (11751237_a_at) / Fold change /veh DUSP10 (11751237_a_at) / RFU ID3 (11757404_x_at) / Fold change /veh ID3 (11757404_x_at) / RFU PLEKHG5 (11737974_s_at) / Fold change /veh PLEKHG5 (11737974_s_at) / RFU LRRC4B (11730491_at) / Fold change /veh LRRC4B (11730491_at) / RFU GIMAP4 (11747438_a_at) / Fold change /veh GIMAP4 (11747438_a_at) / RFU KRT8 (11758183_x_at) / Fold change /veh KRT8 (11758183_x_at) / RFU CNN1 (11734310_a_at) / Fold change /veh CNN1 (11734310_a_at) / RFU VPS37D (11726825_at) / Fold change /veh VPS37D (11726825_at) / RFU C10orf10 (11716522_x_at) / Fold change /veh C10orf10 (11716522_x_at) / RFU KIR2DL2 /// KIR2DL4 /// KIR2DL5A /// KIR2DL5B /// KIR2DS1 /// KIR2DS2 /// KIR2DS3 /// KIR2DS4 /// KIR3DL3 /// KIR3DL3 /// KIR3DS1 (11738374_at) / Fold change /veh KIR2DL2 /// KIR2DL4 /// KIR2DL5A /// KIR2DL5B /// KIR2DS1 /// KIR2DS2 /// KIR2DS3 /// KIR2DS4 /// KIR3DL3 /// KIR3DL3 /// KIR3DS1 (11738374_at) / RFU C1QL1 (11718748_at) / Fold change /veh C1QL1 (11718748_at) / RFU TMPRSS4 (11747572_a_at) / Fold change /veh TMPRSS4 (11747572_a_at) / RFU HAMP (11756126_x_at) / Fold change /veh HAMP (11756126_x_at) / RFU RNFT2 (11725882_a_at) / Fold change /veh RNFT2 (11725882_a_at) / RFU NR4A2 (11747474_a_at) / Fold change /veh NR4A2 (11747474_a_at) / RFU ABCC12 (11746883_a_at) / Fold change /veh ABCC12 (11746883_a_at) / RFU TMEM136 (11760407_x_at) / Fold change /veh TMEM136 (11760407_x_at) / RFU CLDN22 /// WWC2 (11732394_at) / Fold change /veh CLDN22 /// WWC2 (11732394_at) / RFU HLA-DPB1 (11760878_x_at) / Fold change /veh HLA-DPB1 (11760878_x_at) / RFU SPINT1 (11716480_a_at) / Fold change /veh SPINT1 (11716480_a_at) / RFU GAP43 (11754022_s_at) / Fold change /veh GAP43 (11754022_s_at) / RFU A4GNT (11735810_at) / Fold change /veh A4GNT (11735810_at) / RFU PRB3 (11715151_x_at) / Fold change /veh PRB3 (11715151_x_at) / RFU TUBB4B (11761932_at) / Fold change /veh TUBB4B (11761932_at) / RFU CAPN14 (11732068_a_at) / Fold change /veh CAPN14 (11732068_a_at) / RFU TMCC2 (11721928_a_at) / Fold change /veh TMCC2 (11721928_a_at) / RFU IRGQ (11745062_a_at) / Fold change /veh IRGQ (11745062_a_at) / RFU FAM174B (11720279_a_at) / Fold change /veh FAM174B (11720279_a_at) / RFU TMPRSS4 (11748680_a_at) / Fold change /veh TMPRSS4 (11748680_a_at) / RFU FAM212B (11763350_a_at) / Fold change /veh FAM212B (11763350_a_at) / RFU PLEKHG5 (11743358_a_at) / Fold change /veh PLEKHG5 (11743358_a_at) / RFU ZSCAN30 (11745921_a_at) / Fold change /veh ZSCAN30 (11745921_a_at) / RFU CMKLR1 (11741424_a_at) / Fold change /veh CMKLR1 (11741424_a_at) / RFU LOC101060620 /// MAPK8IP1 (11723275_at) / Fold change /veh LOC101060620 /// MAPK8IP1 (11723275_at) / RFU SPTSSB (11747773_x_at) / Fold change /veh SPTSSB (11747773_x_at) / RFU PRSS12 (11739890_at) / Fold change /veh PRSS12 (11739890_at) / RFU BIN1 (11741810_x_at) / Fold change /veh BIN1 (11741810_x_at) / RFU WNT11 (11732464_a_at) / Fold change /veh WNT11 (11732464_a_at) / RFU C10orf10 (11716521_a_at) / Fold change /veh C10orf10 (11716521_a_at) / RFU C5orf56 (11738089_at) / Fold change /veh C5orf56 (11738089_at) / RFU CYB561 (11721691_x_at) / Fold change /veh CYB561 (11721691_x_at) / RFU ANKRD19P (11752326_a_at) / Fold change /veh ANKRD19P (11752326_a_at) / RFU OR2T12 /// OR2T33 /// OR2T8 (11738714_s_at) / Fold change /veh OR2T12 /// OR2T33 /// OR2T8 (11738714_s_at) / RFU VCAN (11748164_a_at) / Fold change /veh VCAN (11748164_a_at) / RFU JSRP1 (11732532_at) / Fold change /veh JSRP1 (11732532_at) / RFU KRTAP10-11 (11738290_x_at) / Fold change /veh KRTAP10-11 (11738290_x_at) / RFU MYO3A (11730013_a_at) / Fold change /veh MYO3A (11730013_a_at) / RFU EBF3 (11725865_a_at) / Fold change /veh EBF3 (11725865_a_at) / RFU CAMK2N1 (11719241_x_at) / Fold change /veh CAMK2N1 (11719241_x_at) / RFU C5orf56 (11738088_a_at) / Fold change /veh C5orf56 (11738088_a_at) / RFU OLFML3 (11715873_a_at) / Fold change /veh OLFML3 (11715873_a_at) / RFU LOC100653217 /// NTM (11731650_a_at) / Fold change /veh LOC100653217 /// NTM (11731650_a_at) / RFU MAPK11 (11762145_a_at) / Fold change /veh MAPK11 (11762145_a_at) / RFU FIZ1 (11724087_x_at) / Fold change /veh FIZ1 (11724087_x_at) / RFU OASL (11726364_x_at) / Fold change /veh OASL (11726364_x_at) / RFU SOX15 (11748057_x_at) / Fold change /veh SOX15 (11748057_x_at) / RFU CD79A (11719716_a_at) / Fold change /veh CD79A (11719716_a_at) / RFU HIST1H1D (11736915_at) / Fold change /veh HIST1H1D (11736915_at) / RFU CASKIN2 (11723855_a_at) / Fold change /veh CASKIN2 (11723855_a_at) / RFU LOC730098 (11760151_x_at) / Fold change /veh LOC730098 (11760151_x_at) / RFU OR4N2 (11742367_at) / Fold change /veh OR4N2 (11742367_at) / RFU PRRT2 (11749266_a_at) / Fold change /veh PRRT2 (11749266_a_at) / RFU SNX32 (11753110_a_at) / Fold change /veh SNX32 (11753110_a_at) / RFU CDHR5 (11726645_a_at) / Fold change /veh CDHR5 (11726645_a_at) / RFU RCAN1 (11760418_a_at) / Fold change /veh RCAN1 (11760418_a_at) / RFU FAM167A (11723789_a_at) / Fold change /veh FAM167A (11723789_a_at) / RFU FAM26E (11764081_at) / Fold change /veh FAM26E (11764081_at) / RFU ISYNA1 (11749810_s_at) / Fold change /veh ISYNA1 (11749810_s_at) / RFU ACY1 (11761880_at) / Fold change /veh ACY1 (11761880_at) / RFU 11764098_at / Fold change /veh 11764098_at / RFU SAMD14 (11745864_x_at) / Fold change /veh SAMD14 (11745864_x_at) / RFU NPB (11741838_a_at) / Fold change /veh NPB (11741838_a_at) / RFU TMPRSS6 (11731388_a_at) / Fold change /veh TMPRSS6 (11731388_a_at) / RFU KRTAP10-2 (11738614_at) / Fold change /veh KRTAP10-2 (11738614_at) / RFU ARHGAP8 /// PRR5-ARHGAP8 (11727945_x_at) / Fold change /veh ARHGAP8 /// PRR5-ARHGAP8 (11727945_x_at) / RFU KRTAP5-7 /// NADSYN1 (11734609_at) / Fold change /veh KRTAP5-7 /// NADSYN1 (11734609_at) / RFU RASL12 (11751679_a_at) / Fold change /veh RASL12 (11751679_a_at) / RFU CDKN2B (11736163_a_at) / Fold change /veh CDKN2B (11736163_a_at) / RFU PRF1 (11729649_at) / Fold change /veh PRF1 (11729649_at) / RFU, ZNF638 /// ZNF638-IT1 / Fold change vs veh, ZNF638 /// ZNF638-IT1 / RFU, PANK3 / Fold change vs veh, PANK3 / RFU, SH3YL1 / Fold change vs veh, SH3YL1 / RFU, ZEB2 / Fold change vs veh, ZEB2 / RFU, NRIP1 / Fold change vs veh, NRIP1 / RFU, PTTG1IP / Fold change vs veh, PTTG1IP / RFU, CAPN2 / Fold change vs veh, CAPN2 / RFU, MED14 / Fold change vs veh, MED14 / RFU, SNORA58 / Fold change vs veh, SNORA58 / RFU, C1orf63 / Fold change vs veh, C1orf63 / RFU, LRRFIP1 / Fold change vs veh, LRRFIP1 / RFU, NDUFAF7 / Fold change vs veh, NDUFAF7 / RFU, SLC12A2 / Fold change vs veh, SLC12A2 / RFU, IBTK / Fold change vs veh, IBTK / RFU, ESF1 / Fold change vs veh, ESF1 / Fold change vs veh, TMEM50B / RFU, TAOK1 / Fold change vs veh, TAOK1 / RFU, ACBD3 / Fold change vs veh, ACBD3 / RFU, TMA16 / Fold change vs veh, TMA16 / RFU, RWDD3 / Fold change vs veh, RWDD3 / RFU, BCAT1 / Fold change vs veh, BCAT1 / RFU, EDEM3 / Fold change vs veh, EDEM3 / RFU, TMEM33 / Fold change vs veh, TMEM33 / RFU, WDR75 / Fold change vs veh, WDR75 / RFU, AHCTF1 / Fold change vs veh, AHCTF1 / RFU, TFRC / Fold change vs veh, TFRC / RFU, ZDHHC17 / Fold change vs veh, ZDHHC17 / RFU, NOM1 / Fold change vs veh, NOM1 / RFU, ARL8B / Fold change vs veh, ARL8B / RFU, ZBTB11 / Fold change vs veh, ZBTB11 / RFU, TAMM41 / Fold change vs veh, TAMM41 / RFU, KIAA1704 /// LOC100996395 / Fold change vs veh, KIAA1704 /// LOC100996395 / RFU, ING1 / Fold change vs veh, ING1 / RFU, TRMT61B / Fold change vs veh, TRMT61B / RFU, FUBP3 / Fold change vs veh, FUBP3 / RFU, TP53 / Fold change vs veh, TP53 / RFU, TNKS2 / Fold change vs veh, TNKS2 / RFU, ZFP14 / Fold change vs veh, ZFP14 / RFU, ACTR2 / Fold change vs veh, ACTR2 / RFU, PPP3R1 / Fold change vs veh, PPP3R1 / RFU, PIK3R1 / Fold change vs veh, PIK3R1 / RFU, HNRNPA1 / Fold change vs veh, HNRNPA1 / RFU, RNF170 / Fold change vs veh, RNF170 / RFU, ZNF28 / Fold change vs veh, ZNF28 / RFU, RNGTT / Fold change vs veh, RNGTT / RFU, OGT / Fold change vs veh, OGT / RFU, BRD1 / Fold change vs veh, BRD1 / RFU, MARS / Fold change vs veh, MARS / RFU, ZNF655 / Fold change vs veh, ZNF655 / RFU, FAHD1 / Fold change vs veh, FAHD1 / RFU, BDP1 / Fold change vs veh, BDP1 / RFU, LRRCC1 / Fold change vs veh, LRRCC1 / RFU, ARID1A / Fold change vs veh, ARID1A / RFU, ZNF146 / Fold change vs veh, ZNF146 / RFU, ZNF330 / Fold change vs veh, ZNF330 / RFU, GPN3 / Fold change vs veh, GPN3 / RFU, C9orf123 / Fold change vs veh, C9orf123 / RFU, N4BP2L2 / Fold change vs veh, N4BP2L2 / RFU, ARFIP1 / Fold change vs veh, ARFIP1 / RFU, FAM179B / Fold change vs veh, FAM179B / RFU, BCL10 / Fold change vs veh, BCL10 / RFU, UHRF1BP1L / Fold change vs veh, UHRF1BP1L / RFU, BET1 / Fold change vs veh, BET1 / RFU, CNOT2 / Fold change vs veh, CNOT2 / RFU, ZNF268 / Fold change vs veh, ZNF268 / Fold change vs veh, ZNF507 / RFU, DGCR2 / Fold change vs veh, DGCR2 / RFU, WDSUB1 / Fold change vs veh, WDSUB1 / Fold change vs veh, HSP90B1 /// MIR3652 / RFU, ADSS / Fold change vs veh, ADSS / RFU, GK / Fold change vs veh, GK / RFU, ZNF148 / Fold change vs veh, ZNF148 / RFU, TAF9 / Fold change vs veh, TAF9 / RFU, SLC1A5 / Fold change vs veh, SLC1A5 / RFU, SLMO2 / Fold change vs veh, SLMO2 / RFU, ABCC4 / Fold change vs veh, ABCC4 / RFU, LOC101060439 /// RAP1B / Fold change vs veh, LOC101060439 /// RAP1B / RFU, RFX7 / Fold change vs veh, RFX7 / RFU, GTPBP10 / Fold change vs veh, GTPBP10 / RFU, CNEP1R1 / Fold change vs veh, CNEP1R1 / RFU, BIVM-ERCC5 /// ERCC5 / Fold change vs veh, BIVM-ERCC5 /// ERCC5 / RFU, ILF3 / Fold change vs veh, ILF3 / RFU 11762660_at / Fold change /veh 11762660_at / RFU VCAN (11757783_s_at) / Fold change /veh VCAN (11757783_s_at) / RFU DDX43 (11728927_at) / Fold change /veh DDX43 (11728927_at) / RFU KRT8 (11758188_x_at) / Fold change /veh KRT8 (11758188_x_at) / RFU NKD1 (11759106_at) / Fold change /veh NKD1 (11759106_at) / RFU SRD5A1 (11742802_a_at) / Fold change /veh SRD5A1 (11742802_a_at) / RFU TPSAB1 /// TPSB2 (11721975_s_at) / Fold change /veh TPSAB1 /// TPSB2 (11721975_s_at) / RFU GSTM3 (11746129_a_at) / Fold change /veh GSTM3 (11746129_a_at) / RFU IL23R (11737362_x_at) / Fold change /veh IL23R (11737362_x_at) / RFU TMEM51 (11727254_a_at) / Fold change /veh TMEM51 (11727254_a_at) / RFU PIWIL2 (11732686_x_at) / Fold change /veh PIWIL2 (11732686_x_at) / RFU ORM1 (11744905_x_at) / Fold change /veh ORM1 (11744905_x_at) / RFU CCDC152 (11743942_at) / Fold change /veh CCDC152 (11743942_at) / RFU ECM1 (11717891_a_at) / Fold change /veh ECM1 (11717891_a_at) / RFU IL23R (11748794_a_at) / Fold change /veh IL23R (11748794_a_at) / RFU TNFAIP8L3 (11732012_x_at) / Fold change /veh TNFAIP8L3 (11732012_x_at) / RFU MBOAT4 (11741988_at) / Fold change /veh MBOAT4 (11741988_at) / RFU 11764193_at / Fold change /veh 11764193_at / RFU TMEM53 (11763286_at) / Fold change /veh TMEM53 (11763286_at) / RFU MAGEB2 (11727129_at) / Fold change /veh MAGEB2 (11727129_at) / RFU TMEM200A (11744735_a_at) / Fold change /veh TMEM200A (11744735_a_at) / RFU CCDC152 (11751479_a_at) / Fold change /veh CCDC152 (11751479_a_at) / RFU FAM211A (11726209_a_at) / Fold change /veh FAM211A (11726209_a_at) / RFU RGS16 (11746705_a_at) / Fold change /veh RGS16 (11746705_a_at) / RFU VCAN (11755009_s_at) / Fold change /veh VCAN (11755009_s_at) / RFU RHOB (11743442_s_at) / Fold change /veh RHOB (11743442_s_at) / RFU RGS16 (11720943_a_at) / Fold change /veh RGS16 (11720943_a_at) / RFU RGS16 (11720944_at) / Fold change /veh RGS16 (11720944_at) / RFU, VPS4B / Fold change vs veh, VPS4B / RFU, CREB1 / Fold change vs veh, CREB1 / RFU, DNAJC13 / Fold change vs veh, DNAJC13 / RFU, GNAQ / Fold change vs veh, GNAQ / RFU, CDK5R1 / Fold change vs veh, CDK5R1 / RFU, ZRANB3 / Fold change vs veh, ZRANB3 / RFU, CUL4A / Fold change vs veh, CUL4A / RFU, CCNY / Fold change vs veh, CCNY / RFU, UFL1 / Fold change vs veh, UFL1 / RFU, COG3 / Fold change vs veh, COG3 / RFU, DIAPH2 / Fold change vs veh, DIAPH2 / RFU, SKA2 / Fold change vs veh, SKA2 / RFU, AFF3 / Fold change vs veh, AFF3 / RFU, LMF1 / Fold change vs veh, LMF1 / RFU, IPO11 / Fold change vs veh, IPO11 / RFU, DFFB / Fold change vs veh, DFFB / RFU, FOXP1 / Fold change vs veh, FOXP1 / RFU, CARD8 / Fold change vs veh, CARD8 / RFU, STRN3 / Fold change vs veh, STRN3 / RFU, ADK / Fold change vs veh, ADK / RFU, RASSF2 / Fold change vs veh, RASSF2 / RFU, WIPF1 / Fold change vs veh, WIPF1 / RFU, LARP1B / Fold change vs veh, LARP1B / RFU, RASA1 / Fold change vs veh, RASA1 / RFU, RB1 / Fold change vs veh, RB1 / RFU, PPFIA1 / Fold change vs veh, PPFIA1 / RFU, MAT2A / Fold change vs veh, MAT2A / RFU, CCT5 / Fold change vs veh, CCT5 / RFU, WDR92 / Fold change vs veh, WDR92 / RFU, CUX1 / Fold change vs veh, CUX1 / RFU, TTC7A / Fold change vs veh, TTC7A / RFU, TMEM135 / Fold change vs veh, TMEM135 / RFU, DEPTOR / Fold change vs veh, DEPTOR / RFU, CPM / Fold change vs veh, CPM / RFU, DNAJB6 / Fold change vs veh, DNAJB6 / RFU, CACNA2D3 / Fold change vs veh, CACNA2D3 / RFU, DTX4 / Fold change vs veh, DTX4 / RFU, TFCP2 / Fold change vs veh, TFCP2 / RFU, GMCL1 /// GMCL1P1 / Fold change vs veh, GMCL1 /// GMCL1P1 / RFU, AEBP2 / Fold change vs veh, AEBP2 / RFU, SNHG1 /// SNORD22 /// SNORD25 /// SNORD26 /// SNORD27 /// SNORD28 /// SNORD29 /// SNORD31 / Fold change vs veh, SNHG1 /// SNORD22 /// SNORD25 /// SNORD26 /// SNORD27 /// SNORD28 /// SNORD29 /// SNORD31 / Fold change (Aza/veh), C12orf56 (ProbeSet 11735607_a_at) / Fold change (ACY-1035/veh), C12orf56 (ProbeSet 11735607_a_at) / Fold change (Aza/veh), FGFR1OP (ProbeSet 11751329_s_at) / Fold change (ACY-1035/veh), FGFR1OP (ProbeSet 11751329_s_at) / Fold change (Aza/veh), VPS36 (ProbeSet 11739960_a_at) / Fold change (ACY-1035/veh), VPS36 (ProbeSet 11739960_a_at) / RFU SYPL1 (11715823_x_at) / Fold change /veh SYPL1 (11715823_x_at) / RFU IGFBP7 (11715501_s_at) / Fold change /veh IGFBP7 (11715501_s_at) / RFU REEP3 (11722064_at) / Fold change /veh REEP3 (11722064_at) / RFU IGLL1 (11728026_x_at) / Fold change /veh IGLL1 (11728026_x_at): dose or concentration left out as unconfirmed. The class given is cell-based, human. As to conditions: MV-4-11 cells, 48 hours.

Regarding `Nc1ccc(-c2cccs2)cc1NC(=O)c1ccc2c(c1)cc(C1CC1)n2CCN1CCOCC1` [ACY-1035], the “RFU RGS16 (11720944_at)” value is given as 40.38 RFU.
